Literature values as cited in patent US9842198B2, “Screening method and systems utilizing mass spectral fragmentation patterns” (McMaster University, priority 2012, dated 2017).
*1 amine or outer side, *2 acyl side, *3 side chain or, on linkers, in order; H or OH if unused. Where a SMILES comes first, the peptide text is derived from it. Bridges are numbered along the chain shown (N, C = ends). [ ]: non-standard residue; d: D form. The star is where a group is joined. Cinnamoyl(2-(1Z-pentenyl)) = CCC/C=C\c1ccccc1/C=C/C(=O)*; X1 = CN(/C(=C/c1ccc(O)cc1)C(=O)[*:2])[*:1]; aThr = C[C@H](O)[C@H](N)C(=O)O

Test system: G-protein coupled receptor NK-1
Conditions: natural ligands are tachykinin peptide hormones such as neurokinin A

Compound: CCC/C=C\c1ccccc1/C=C/C(=O)N[C@@H]1C(=O)N(C)/C(=C/c2ccc(O)cc2)C(=O)N[C@@H](CC(C)C)C(=O)N[C@H](Cc2ccccc2)C(=O)N[C@@H]([C@H](C)O)C(=O)N[C@@H](CC(N)=O)C(=O)N[C@@H](CO)C(=O)O[C@@H]1C [WS-9326A] ({Cinnamoyl(2-(1Z-pentenyl))}-T[X1]L[dF][aThr]NS; ester 1-C)
- antagonist activity at NK-1: potent antagonist
